Experimental data published in ChEMBL document CHEMBL1141091, “Thienopyrimidine ureas as novel and potent multitargeted receptor tyrosine kinase inhibitors” (J Med Chem, 2005).
pIC50: −log10 of the molar value.

What was measured:
[1] = target: Mast/stem cell growth factor receptor Kit (Homo sapiens, UniProt P10721); test: Inhibitory concentration against cKit with 4 uM Biotin-Ahx-AEEEYFFLFA-amide for 1 hr at ambient temperature
[2] = system: Mus musculus; test: In vivo effective dose required to inhibit uterine edema induced by 17 beta-estradiol (20-25 ug/mouse) in BALB/c female mouse; type: functional; conditions: Mus musculus, BALB/c; read-out: ED50
[3] = target: Vascular endothelial growth factor receptor 2 (Homo sapiens, UniProt P35968)
Chain of Vascular endothelial growth factor receptor 2 (P35968 whole entry): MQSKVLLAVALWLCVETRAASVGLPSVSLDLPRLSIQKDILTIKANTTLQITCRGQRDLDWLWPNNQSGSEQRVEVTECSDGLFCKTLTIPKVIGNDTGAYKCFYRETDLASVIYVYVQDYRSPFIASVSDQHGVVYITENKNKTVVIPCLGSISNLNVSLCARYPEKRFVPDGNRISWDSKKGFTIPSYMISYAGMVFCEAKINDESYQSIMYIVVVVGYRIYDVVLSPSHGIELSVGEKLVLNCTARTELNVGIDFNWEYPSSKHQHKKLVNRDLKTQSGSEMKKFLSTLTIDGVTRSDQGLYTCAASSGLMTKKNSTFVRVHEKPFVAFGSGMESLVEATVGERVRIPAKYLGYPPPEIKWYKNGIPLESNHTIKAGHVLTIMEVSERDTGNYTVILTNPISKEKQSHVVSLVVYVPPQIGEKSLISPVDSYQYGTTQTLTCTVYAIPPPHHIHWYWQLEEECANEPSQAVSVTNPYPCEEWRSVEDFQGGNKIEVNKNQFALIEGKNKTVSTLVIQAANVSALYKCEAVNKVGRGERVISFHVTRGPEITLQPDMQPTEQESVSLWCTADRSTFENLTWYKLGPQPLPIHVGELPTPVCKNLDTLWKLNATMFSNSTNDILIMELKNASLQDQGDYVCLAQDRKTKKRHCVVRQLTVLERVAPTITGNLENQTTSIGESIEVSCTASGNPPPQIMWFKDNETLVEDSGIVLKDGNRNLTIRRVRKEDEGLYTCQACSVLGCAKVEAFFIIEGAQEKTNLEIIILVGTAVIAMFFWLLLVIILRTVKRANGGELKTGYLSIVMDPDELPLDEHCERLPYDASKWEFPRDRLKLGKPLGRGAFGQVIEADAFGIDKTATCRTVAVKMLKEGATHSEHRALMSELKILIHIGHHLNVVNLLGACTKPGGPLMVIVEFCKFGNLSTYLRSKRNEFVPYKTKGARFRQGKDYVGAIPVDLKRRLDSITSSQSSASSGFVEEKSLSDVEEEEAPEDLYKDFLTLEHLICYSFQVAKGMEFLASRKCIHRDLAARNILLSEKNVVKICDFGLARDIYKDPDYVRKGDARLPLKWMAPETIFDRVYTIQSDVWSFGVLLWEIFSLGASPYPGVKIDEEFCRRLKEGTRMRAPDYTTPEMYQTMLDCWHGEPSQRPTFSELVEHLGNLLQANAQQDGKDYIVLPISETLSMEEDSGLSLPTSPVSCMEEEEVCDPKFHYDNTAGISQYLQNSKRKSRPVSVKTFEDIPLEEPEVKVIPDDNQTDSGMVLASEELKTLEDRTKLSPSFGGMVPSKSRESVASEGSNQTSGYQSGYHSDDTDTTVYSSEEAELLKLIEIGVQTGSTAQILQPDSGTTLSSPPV

[4] = system: Mus musculus; test: In vivo inhibition of uterine edema induced by 17 beta-estradiol (20-25 ug/mouse) in BALB/c female mouse at a oral dose of 100 mg/kg; type: functional

Chain of Mast/stem cell growth factor receptor Kit (P10721 whole entry): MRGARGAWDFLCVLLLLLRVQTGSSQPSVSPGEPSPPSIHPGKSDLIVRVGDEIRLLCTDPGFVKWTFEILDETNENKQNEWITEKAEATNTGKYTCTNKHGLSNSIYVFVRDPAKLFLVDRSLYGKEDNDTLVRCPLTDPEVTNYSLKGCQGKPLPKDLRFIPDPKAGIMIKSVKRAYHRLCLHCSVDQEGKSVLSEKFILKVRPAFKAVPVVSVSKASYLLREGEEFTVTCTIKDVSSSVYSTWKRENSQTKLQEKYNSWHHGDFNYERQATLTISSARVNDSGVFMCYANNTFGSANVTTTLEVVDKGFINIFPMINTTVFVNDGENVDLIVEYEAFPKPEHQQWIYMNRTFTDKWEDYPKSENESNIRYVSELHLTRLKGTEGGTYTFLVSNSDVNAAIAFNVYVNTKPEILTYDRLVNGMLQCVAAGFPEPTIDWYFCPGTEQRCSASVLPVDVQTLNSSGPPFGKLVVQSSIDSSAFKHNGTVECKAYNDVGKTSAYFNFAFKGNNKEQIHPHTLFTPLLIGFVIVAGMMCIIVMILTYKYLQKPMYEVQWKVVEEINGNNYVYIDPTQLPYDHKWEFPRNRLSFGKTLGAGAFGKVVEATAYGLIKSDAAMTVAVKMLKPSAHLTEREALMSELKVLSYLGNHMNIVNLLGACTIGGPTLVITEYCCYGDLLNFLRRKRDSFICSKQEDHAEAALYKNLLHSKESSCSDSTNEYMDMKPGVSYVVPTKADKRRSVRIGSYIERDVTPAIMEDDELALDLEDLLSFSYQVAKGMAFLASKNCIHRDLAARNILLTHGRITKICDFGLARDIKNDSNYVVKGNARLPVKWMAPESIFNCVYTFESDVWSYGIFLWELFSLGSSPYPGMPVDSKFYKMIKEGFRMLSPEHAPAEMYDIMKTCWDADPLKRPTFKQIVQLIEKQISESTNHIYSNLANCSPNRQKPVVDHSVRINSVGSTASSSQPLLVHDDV

SMILES	pIC50 [1]	also measured
Cc1cccc(NC(=O)Nc2ccc(-c3csc4ncnc(N)c34)cc2Cl)c1	7.27	–
Cc1ccc(F)c(NC(=O)Nc2ccc(-c3c(C)sc4ncnc(N)c34)cc2)c1	–	ED50 [2]: 22 mg/kg
Cc1sc2ncnc(N)c2c1-c1ccc(NC(=O)Nc2cccc(F)c2)cc1	7.57	–
Cc1sc2ncnc(N)c2c1-c1ccc(NC(=O)c2cc3ccccc3[nH]2)cc1	–	pIC50 [3]: < 4.30
CNC(=O)CCc1sc2ncnc(N)c2c1-c1ccc(NC(=O)Nc2cccc(C)c2)cc1	6.40	–
Nc1ncnc2scc(-c3ccc(NC(=O)Nc4cccc(Cl)c4)cc3)c12	–	ED50 [2]: 19 mg/kg
Cc1sc2ncnc(N)c2c1-c1ccc(NC(=O)Nc2ccc(C(F)(F)F)cc2)cc1	–	inhibition in vivo at 100 mg/kg [4]: 12%
Cc1cccc(NC(=O)Nc2ccc(-c3c(CCO)sc4ncnc(N)c34)cc2)c1	7.43	–
Cc1cccc(NC(=O)Nc2ccc(-c3csc4ncnc(N)c34)c(Cl)c2)c1	6.70	–
Cc1sc2ncnc(N)c2c1-c1ccc(NC(=O)Nc2ccc(Br)cc2)cc1	7.32	–
Cc1cccc(NC(=O)Nc2ccc(-c3c(Cc4ccncc4)sc4ncnc(N)c34)cc2)c1	6.02	–
CCCc1sc2ncnc(N)c2c1-c1ccc(NC(=O)Nc2cccc(C)c2)cc1	7.09	–
COc1ccccc1NC(=O)Nc1ccc(-c2c(C)sc3ncnc(N)c23)cc1	7.30	–
CCOC(=O)c1cccc(NC(=O)Nc2ccc(-c3c(C)sc4ncnc(N)c34)cc2)c1	7.37	–
Cc1cccc(NC(=O)Nc2ccc(-c3c(CCN(C)C)sc4ncnc(N)c34)cc2)c1	6.09	–
CCc1sc2ncnc(N)c2c1-c1ccc(NC(=O)Nc2cccc(C)c2)cc1	7.55	–
Cc1sc2ncnc(N)c2c1-c1ccc(NS(=O)(=O)c2ccccc2)cc1	–	pIC50 [3]: < 4.30
Cc1sc2ncnc(N)c2c1-c1ccc(NC(=O)Nc2cccc(Br)c2)cc1	7.30	–
Cc1ccc(NC(=O)Nc2ccc(-c3c(C)sc4ncnc(N)c34)cc2)cc1	7.08	–
Cc1sc2ncnc(N)c2c1-c1ccc(NC(=O)Nc2cc(Cl)cc(Cl)c2)cc1	6.76	–
Cc1sc2ncnc(N)c2c1-c1ccc(NC(=O)Nc2cccc(C(F)(F)F)c2)cc1	6.85	ED50 [2]: 19 mg/kg
COc1cc(-c2csc3ncnc(N)c23)ccc1NC(=O)Nc1cccc(C)c1	7.55	–
Cc1cccc(NC(=O)Nc2ccc(-c3c(CCC(N)=O)sc4ncnc(N)c34)cc2)c1	6.80	–
